Results from patent publication US7655237B2, “Use of soluble CD14 for treatment of type 2 diabetes mellitus” (Bridge Bioresearch Limited, priority 2003, dated 2010).
Where two headings read alike, the source gives them in different places.

How the values were obtained:
LPS = settings: biotinylated LPS binding to sCD14-coated wells, cited from earlier work
C57BL/6J ob/ob mice = assay: treatment of insulin-resistant diabetic C57BL/6J ob/ob mice, intraperitoneal glucose tolerance test; format: in vivo
Excerpt: The objective of this experiment was to study the effect of systemic administration of human recombinant sCD14 (rhCD14) with respect to relevant insulin resistance parameters in experimental mice (mice C57BL/6J ob/ob).
Experimental animals: Mice strains C57BL/6J ob/ob (The Jackson lab.). Males of 10 weeks old. These animals had obesity with hyperphagia, hyperinsulinemia (the presence of excess insulin in the blood), insulin resistance and moderate hyperglycemia (an excess of sugar in the blood).
Treatment of the mice with rhCD14: rhCD14 was continuously infused for 12 days by use of Alzet® pumps (pump 1002, 100 μl) implanted subcutaneously on the back of the animals. 20 mice were used. 10 with rhCD14 and 10 with saline serum (control). The dose was 1 μg/g weight of mice/day and it was administrated subcutaneously for 12 days.
Assay for glucose tolerance: Finalized the 12 days and after 16 hours of fasting, an intraperitoneal glucose tolerance test (GTT) was made. 2 g/kg of glucose (Glucosmon, 50%) were injected intraperitoneally. Blood samples were taken from the tail of the mice (20 μl) at 0, 15, 30, 60, 120 and 180 minutes after the glucose administration. The blood glucose levels were measured using a conventional glucometer (Menarini) and the insulin levels were meed by ELISA (Mercodia Ultrasensitive Mouse Insulin ELISA).

C57BL/6J mice (HF mice) = assay: treatment of insulin-resistant obese C57BL/6J mice (HF mice), glucose tolerance test; format: in vivo; settings: HF diet obese mice
Excerpt: The objective of this experiment was to study the effect of systemic administration of human recombinant sCD14 (rhCD14) with respect to relevant insulin resistance parameters in experimental mice (C57BL/6J mice (HF mice).
Experiential animals: Male mice strains C57BL/6J (HF mice) C(he Jackson lab.). These animals had obesity.
Treatment of the mice with rhCD14: Male C57BL/6J mice were fed a HF diet (Harlan Teklad No. 88137: 21% by wt and 42% kcal from fat) for 26-28 weeks. The last 12 days, mice received a dose of 1 μg/g bw per day of hCD14 in two injections (0.5 μg/g each one) every 12 hours. The control group was treated with vehicle (saline serum) alone. Each group contained 9 mice.
Assay for Glucose Tolerance: As in Example 1.

Row | Substance | inhibition of LPS binding (LPS; concentration 1.7 μM) [%] | inhibition of LPS binding (LPS; concentration 7 μM) [%] | basal levels of serum glucose compared to the control group (C57BL/6J ob/ob mice; 1 μg/g/day s.c. for 12 days) | concentrations of serum insulin (C57BL/6J ob/ob mice; 1 μg/g/day s.c. for 12 days) | fasting blood glucose (C57BL/6J ob/ob mice; 1 μg/g/day s.c. infusion for 12 days, 16 hours fasting, mean±SEM, control 242±30, P=0.02) [mg/dL] | body weight, treated vs controls (C57BL/6J ob/ob mice; 12 days treatment) | glucose curves in GTT, treated vs control (two-way ANOVA) (C57BL/6J ob/ob mice; i.p. GTT 2 g/kg glucose, 0-180 min, P<0.02) | insulin curves in GTT, treated vs control (two-way ANOVA) (C57BL/6J ob/ob mice; i.p. GTT, P<0.0001) | concentrations of serum insulin (C57BL/6J mice (HF mice); 1 μg/g bw per day for 12 days) | basal levels of serum glucose compared to the control group (C57BL/6J mice (HF mice); 1 μg/g bw per day in two injections for 12 days) | body weight, treated vs controls (C57BL/6J mice (HF mice); 12 days treatment) | insulin curves in GTT, treated vs control (two-way ANOVA) (C57BL/6J mice (HF mice); P<0.0001) | glucose curves in GTT, treated vs control (two-way ANOVA) (C57BL/6J mice (HF mice); P<0.002)
1 | AELQQWLKPGLKVLSIAQAHSLNFSC (mammalian) [peptide] | 72 | 84 | – | – | – | – | – | – | – | – | – | – | –
2 | rhCD14: human recombinant soluble CD14 glycoprotein, binds bacterial lipopolysaccharide (LPS) | 84 | – | decreased | also decreased | 153 ± 14 | did not produce significant changes | significant difference | significant difference | increased | decreased | did not produce significant changes | significant difference | significant difference
